Data published in patent publication US10849874B2, “Use of composition for modulating angiogenesis” (National Sun Yat-sen University, priority 2015, dated 2020).

Assays:
filaggrin = assay: Staining of regulating factor for skin barrier function (filaggrin as marker) in atopic eczema; assay type: in vivo; details: balb/c mice, 50 μg/0.2 ml of excavatolide B in lotion (FIG. 10)
Method: (§1) The balb/c mice were used in this experiment. The method for inducing atopic eczema comprised: (1) prepared 1% DNCB in olive oil/acetone (1:4); and (2) applied 1% DNCB on the shaved skins of the backs of balb/c mice at day 1, 3, 9, and 11, respectively. The balb/c mice were randomly divided into three groups: (A) the control group; (B) the atopic eczema group; and (C) the EXC-B treating group. The EXC-B treating group was treated with excavatolide B for seven consecutive days starting from day 15. Next, the present invention assessed the treating effect of EXC-B on atopic eczema by image analysis of the appearance.
(§2) (b) Immunohistochemistry Staining:
(§3) Mice were scarified by cervical dislocation. The skin tissues of the backs of the mice were collected, fixed with formalin buffer and embedded in paraffin. The tissue sections were treated with a graded alcohol bath after the paraffin-embedded tissue sections (2 μm) were deparaffinized by xylene. Next, the sections reacted with 0.3% hydrogen peroxide for 30 minutes to remove endogenous peroxidase. After the paraffin-embedded tissue sections reacted with a protein K in a 4% phosphate buffer for 20 minutes at 37° C., the paraffin-embedded tissue sections were washed with 4% phosphate buffer and then blocked with horse serum diluted by phosphate buffer for 1 hr. […]

VEGF = assay: Staining of VEGF expression level in tissue of atopic eczema; assay type: in vivo; details: balb/c mice, 50 μg/0.2 ml of excavatolide B in lotion (FIG. 8)
Method: as §1, §2, §3

[1] = test system: angiogenesis (blood vessels marked by vWF); assay: Staining of angiogenesis (blood vessels marked by vWF) in tissue of burn wound; assay type: in vivo, rat; details: rats, lotion containing EXC-B, versus silver sulphadiazine treating group (FIG. 6)
Method: as §2
(§4) Mice were scarified by cervical dislocation. The skin tissues of the backs of the mice were collected, fixed with formalin buffer and embedded in paraffin. The tissue sections were treated with a graded alcohol bath after the paraffin-embedded tissue sections (2 μm) were deparaffinized by xylene. Next, the sections reacted with 0.3% hydrogen peroxide for 30 minutes to remove endogenous peroxidase. After the paraffin-embedded tissue sections reacted with a protein K in a 4% phosphate buffer for 20 minutes at 37° C., the paraffin-embedded tissue sections were washed with 4% phosphate buffer and then blocked with horse serum diluted by phosphate buffer for 1 hr. Next, the sections were incubated with a diluted target protein antibody for 18-20 hr at 4° C. in a humid environment. After recycling the antibody, the horse serum was reused to incubate the sections for 1 hr and the sections subsequently reacted with an added corresponding secondary antibody for 90 minutes. After the sections reacted with ABC kit, DBA was used to produce color reaction, and the sections were air-dried with a graded alcohol bath and covered with a cover glass. The completed sample section was placed in an optical microscope (DM 6000, Leica Inc, Germany) and a stereomicroscope (APO Z16, Leica Inc. Singapore). […]

burn wound tissue = assay: HE staining of tissue section of burn wound; assay type: in vivo, Male Wistar rats; details: rats, lotion containing EXC-B; HE stained tissue section (FIG. 5)
Method: Pathologic Tissue Slice and HE Staining
After the rats had suffered injuries for specific days according to experimental design they were humanely sacrificed, PBS containing heparin (0.2 U/ml) at 4 degrees Celsius was injected into aorta until PBS carrying no color flowed out of the vein. 4% paraformaldehyde at 4° C. was injected to fasten it, the wounded area was carefully taken out by surgical blades and immersed into 10% Formalin fixing solution to be reserved at 4° C. and fixed for several days. Next, the fixed tissue was dehydrated and wax infiltrated. The skin tissue was dehydrated and wax infiltrated by utilizing a tissue automatic processing system. Afterwards, the tissue was embedded by a paraffin embedding machine into paraffin blocks. After tissue blocks were sliced through a paraffin microtome, tissue slices were stained by using hematoxylin and eosin stain. Upon completion, tissue slices were mounted by micro-mount, and completed sample slices then were placed on an optical microscope for observation, the sample slices were further photographed and recorded by the digital image capture system.

[2] = test system: vascular endothelial growth factor (VEGF); assay: Staining of VEGF expression level in tissue of burn wound; assay type: in vivo, rat; details: rats, lotion containing EXC-B
Method: as §2, §4

atopic eczema = assay: DNCB-induced atopic eczema model, image analysis of skin appearance; assay type: in vivo; details: balb/c mice
Method: (a) Preparation of Animal and Induction of Atopic Eczema:
as §1

burn wound = assay: Healing of burn wound (wound appearance and wound area); assay type: in vivo, Male Wistar rats; details: rats; for wound healing depended on time (burned restoring area, area under the curve) compared to burn wound group and lotion treating group: day 0-27 (FIG. 4)
Method: (b) Preparation of Animal and Operation of Burn Wound:
Male Wistar rats (400-450 g) were used in this experiment. After the rats were anesthetized by 2.5% isoflurane, the present invention selected four burned locations (two locations beneath the scapula of the rat and two locations in the midline of the lumbar spine) on the back of the anesthetized rat. The skins of the burned locations were tightened, and a copper block (2×2 cm) which was preheated to 175° C. by a dry bath was used to closely touch these skins of the locations for 10 seconds to form burn wounds of full-layered skins. The copper block was appropriately moved in order to form a quadrilateral form of burn wound during the burning process. Attention was paid not to add extra pressure on the copper block in order to ensure the same burn pressure each time during the burning process.
(§5) (c) Wound Observation and Area Calculation:
(§6) After being burned, the rats were anesthetized and then taken pictures according to experimentally designed dates. A series of pictures were taken by a digital camera (Coolpix P6000, Nikon, Japan) under the same condition (the diaphragm is 7.2, and the camera shutter is 1/60). A digital image capture system software (Diagnostic Instruments, Inc., Sterling Heights, Mich., U.S.A.) was used to analyze the captured wound pictures to calculate the wound area. The data of the wound area at each observation point were respectively presented at percentage of the wound area relative to day zero.

substance P = assay: Staining of itchy factor (substance P as marker) in atopic eczema; assay type: in vivo; details: balb/c mice, 50 μg/0.2 ml of excavatolide B in lotion (FIG. 9)
Method: as §1, §2, §3

diabetic incised wound = assay: Healing of diabetic incised wound (wound appearance and wound area); assay type: in vivo, Male Wistar rats; details: STZ-diabetic rats
Method: (a) Preparation of Animal and Operation of Incised Wound in Diabetic Rat:
Male Wistar rats (400-450 g) were used in this experiment. The induction of diabetes was performed by using a citrate buffer solution to prepare streptozotocin (STZ, catalog No. 85882 FLUKA, Sigma, St. Louis, Mo., USA). The rats were anesthetized by 2.5% isoflurane and administered with STZ (60 mg/kg) by tail intravenous injection. A week after STZ injection, those rats with blood glucose levels more than 250 mg/dl were identified as successfully diabetic inducted rats. […] After the surgery of the incision of full-layered skins, the rats were randomly divided into two groups: (1) diabetic incised wound group (administered a normal lotion); and (2) EXC-B treating group (administered a lotion containing excavatolide B). The EXC-B treating group was treated with 1 mg/0.2 ml of excavatolide B in the lotion daily.
as §5
as §6, with “The data of the wound area at each observation point were respectively presented at percentage of the wound area relative to day zero.” left out

With excavatolide B [EXC-B] the “decrease of the regulating factor (filaggrin as the marker) for skin barrier function” value (filaggrin) was “recovered”, the “increased expression of the VEGF in the tissue of atopic eczema” value (VEGF) was “inhibited” and the “rate of vascular proliferation (blood vessels marked by vWF)” value [1] was “higher than that of the silver sulphadiazine treating group”. For the same substance, the “tissue changes induced by burn injury (thickening of epithelial layer, damages to dermis, infiltration of neutrophils)” value (burn wound tissue) was “significantly improved”, the “expression level of the VEGF of the burned tissue” value ([2]; versus lotion treating group (FIG. 6)) was “substantially increased” and the “treating effect on VEGF expression of the burned tissue relative to silver sulphadiazine” value ([2]; versus silver sulphadiazine treating group (FIG. 6)) was “better than the effect of the silver sulphadiazine”. The “side effects of the clinical treatment, such as skin dryness and albinism” value (atopic eczema; 50 μg/0.2 ml of excavatolide B in lotion (FIG. 7)) was “no side effects of the clinical treatment were observed”, the “condition of the treated skin (inflammations, scratched wounds)” value (atopic eczema; 50 μg/0.2 ml of excavatolide B in lotion, seven consecutive days from day 15 (FIG. 7)) was “significantly better than the skin of the atopic eczema” and the “wound healing depended on time (burned restoring area, area under the curve) compared to burn wound group and lotion treating group” value (burn wound; 10 μg EXC-B treating group) was “significantly accelerate wound healing”. For the same substance, the “wound healing (appearance, image analysis) after burn injury” value (burn wound; 10 μg/0.2 ml of EXC-B in lotion, appearance at 2-24 days after burn injury (FIG. 3 K-O)) was “significantly improved”, the “wound healing depended on time (burned restoring area, area under the curve) compared to burn wound group and lotion treating group” value (burn wound; 50 μg EXC-B treating group) was “significantly accelerate wound healing” and the “wound healing (appearance, image analysis) after burn injury” value (burn wound; 50 μg/0.2 ml of EXC-B in lotion, appearance at 2-24 days after burn injury (FIG. 3 P-T)) was “significantly improved”. For the same substance, the “itchy factors (the substance P as the marker) in the tissue of the skin” value (substance P) was “significantly inhibited”, the “wound healing (appearance, image analysis) compared to the diabetic incised wound group” value (diabetic incised wound; 1 mg/0.2 ml of excavatolide B in lotion daily, topical, appearance at 4-25 days after incised injury (FIG. 1)) was “significantly improved” and the “wound healing (wound restoring area depended on time) compared to the diabetic incised wound group” value (diabetic incised wound; 1 mg/0.2 ml of excavatolide B in lotion, at day 7, 21, and 28 (FIG. 2)) was “significantly improved”.
